Test results reported in a melting point compilation (Tetko et al.; mined from patent text by program, amines drawn as free bases though some values may be those of a salt).

melting point [°C]	SMILES
172 to 173	COCCc1nc2c(N)nc3c(c2n1CCCNC(=O)N1CCOCC1)CCCC3
105 to 106	O=S(=O)(c1cccc2c(Cl)cccc12)N1CC2CCC(CC2)C1
186 to 188	O=C1c2c(OCc3ccccc3)c(OCc3ccccc3)cc(OCc3ccccc3)c2-c2nn(CCNCCO)c3ccc(NCCNCCO)c1c23
202 to 203	COCc1c(-c2cc(C)no2)ncc2[nH]c3ccc(OCc4ccccc4)cc3c12
108 to 110	COC(=O)c1ccc(S(C)(=O)=O)c(C=O)c1C
177 to 179	O=C1NCCc2ccc(OCCCCCl)cc2N1
265 to 267	CCOC(=O)N1CCn2c(nc(-c3ccncn3)cc2=O)C(NC(=O)c2ccc(-c3cnn(C)c3)cc2)C1 (stereo unspecified)
266 to 267	O=c1ccc(-c2ccc(-n3cnc4c3CCCC4)cc2)n[nH]1
168 to 172	COc1cc(C)nc(NC(=O)NS(=O)(=O)c2cccc3c2C(Cl)=CC3)n1
309 to 312	CCCn1cc2c(C3C(=O)Nc4ccc(Br)cc43)nc(NCC3CCCO3)nc2n1 (stereo unspecified)
157 to 158	CC(C)c1ccc(C2C(=O)Oc3ccc(Br)cc32)cc1 (stereo unspecified)
157 to 160	Cc1cc(N)c2c(c1Cl)CC(C)O2 (stereo unspecified)
248 to 250	CCC(CC)Nc1c(NCc2cc(C)cc(C#N)c2)c(=O)c1=O
234	O=C1NCCc2ccc(OCCCCN3CCN(c4cccc5ccc(F)cc45)CC3)nc2N1
175 to 177	N#Cc1cnn2c1NCC=C2c1cccc(C(F)(F)F)c1
158 to 160	COc1cc(C(C)=O)ccc1OCCCCN1CCC(c2n[nH]c3cc(F)ccc23)CC1
52 to 53	C=CCOCCc1ccc(OCC(O)CNC(C)C)cc1 (stereo unspecified)
246 to 248	CNC1CCN(c2c(F)cc3c(=O)c(C(=O)O)cn(C4CC4)c3c2OC)CC1(C)C (stereo unspecified)
111 to 112	CNC(=O)C(C)n1cc(C)c(-c2ccccc2)n1 (stereo unspecified)
208 to 209	O=C1NCCc2c(-c3ccc(C(F)(F)F)cc3)[nH]c3cccc1c23
166 to 167	CCN(CC)C(=O)Nc1cc(-c2c(-c3cccc(C)c3)nc3cccnn23)ccn1
100	CCCCCCCCCCNC(CCCNC(=N)N)C(=O)O (stereo unspecified)
205 to 207	O=C1c2ccc(O)cc2CCN1CCN1CCCC1
68.7	CC#CCOc1nsc(-c2cccc(F)c2)n1
103 to 104	Cc1noc(CCCCCCCOc2ccc(C3=NCCO3)cc2)c1CCl

melting point [°C]	SMILES
184 to 186	CC(=O)N1CCC(c2nc(N)nc3ccccc23)CC1
174 to 175	N#Cc1c[nH]c(-c2ccc(Cl)cc2)c1
237 to 240	COc1cc2c(cc1Cl)C(Cl)(c1ccccc1Cl)C(=O)N2 (stereo unspecified)
157 to 158	COc1ccc(C(CC(=O)c2ccccc2)C(=O)O)cc1 (stereo unspecified)
104 to 106	CCO[C@@H]1C(C(=O)Nc2ccc(Cl)cc2)=C(C)OC(OCC)(OCC)[C@H]1C (relative stereo)
180	COc1ccc(C(=O)Nc2ccc3ccc(Oc4ccc(Cl)c(Cl)c4)nc3n2)cc1
94 to 96	O=S(=O)(Cc1ccccc1)c1nnnn1Cc1ccccc1
146 to 152	Cn1c(SCCCN2CCc3ccc(C(=O)c4ccccc4)cc3C2)nnc1-c1ccccc1
285 to 287	COc1ccc(-c2ccc3c(c2)C(=O)NC3=O)c2c1OCCO2
190 to 192	Cc1nc(N)c2nc(CCO)n(NC3CCOCC3)c2c1C
162 to 172	COc1cc(OC)nc(NC(=O)NS(=O)(=O)c2c([N+](=O)[O-])ccc3c2CCC3)n1
120 to 122	O=C1OC(O)c2c(Cl)cccc21 (stereo unspecified)
148 to 150	O=c1n(-c2cc(OCCCl)c(Cl)cc2Cl)nc2n1CCCC2
> 250	COc1cc(Nc2c(C#N)cnc3cc(-c4ccc(C=O)o4)ccc23)c(Cl)cc1Cl
143	CC(=O)OC1CSC(Oc2cncc(-c3c(F)cc(F)cc3F)c2)C(OC(C)=O)C1OC(C)=O (stereo unspecified)
131 to 133	COCOc1cc(OC)c(OC)cc1-c1c(C(=O)OC)nnc(C(=O)OC)c1-c1ccc(OC)c(OC)c1
108 to 111	Cn1nc(-c2c(F)cccc2Cl)nc1C(=O)c1ccc(Cl)cc1
50 to 51	O=C1SCCN1Cc1ccccc1
222 to 226	NC(=O)CCC(Nc1ccc2ccccc2n1)C(=O)O (stereo unspecified)
192 to 196	CC(S)C(Cc1ccccc1)C(=O)Nc1cccc(C(=O)O)c1 (stereo unspecified)
157 to 158	Clc1nc2c(c(N[C@@H]3CCC[C@H]3OCc3ccccc3)n1)SCC2
91 to 93	Cc1ccccc1/C=C/c1nc(COc2ccc(CCCCn3ccnc3CCO)cc2)co1
110 to 111	Oc1ccc(C2CCc3ccc(O)cc3O2)cc1 (stereo unspecified)
92 to 96	Cc1ccc2c3c(ccc2n1)OC[C@H](CNC(=O)C1CCc2c([nH]c4ccc(F)cc24)C1)O3 (stereo partly specified)
66 to 68	COC(=O)CSSc1cc(Oc2ccc(C(F)(F)F)cc2Cl)ccc1[N+](=O)[O-]

melting point [°C]	SMILES
119	COc1ccc(C(=O)CN2CCN(C(c3ccccc3)c3ccccc3)CC2)c(OC)c1OC
196 to 198	CC(C)n1nc(-c2c(NCc3ccccn3)nc(N)nc2-c2ccccc2)ccc1=O
171	COc1ccc(Oc2ccc3ccc(NC(=O)c4ccccc4)nc3n2)cc1
271 to 273	Cc1nc(O)c2c(n1)N(c1c(C)cc(Br)cc1C)C(=O)C2C (stereo unspecified)
185	CNC(=O)c1ccc(NC(=O)OC(C)(C)C)cc1
218 to 221	CC(=O)Nc1ccc(OCC(O)CN2CCC(N3CCCNC3=O)CC2)cc1 (stereo unspecified)
198 to 201	Clc1ccc2nc(CN3CCN(c4ccccc4)CC3)[nH]c2c1
104 to 106	C=CCCCOc1ccc2c(=O)cc(-c3ccccc3)oc2c1
168 to 169	ON=Cc1c(-c2ccccc2Br)ccc2c1OCO2
93 to 95	CCOC(=O)Cc1cc(Br)c(OC(=S)N(C)C)c(Br)c1
89	O=C(CCCCCN1CCN(c2cccc(OC(F)(F)F)c2)CC1)N1Cc2ccccc2C1
126 to 128	CC(=O)Oc1c(C)c(CCC2CC(O)CC(=O)O2)c2c(c1C)CC(C)(C)O2 (stereo unspecified)
173 to 174	CNC(NCCSCc1nccc(NC(N)=NCC(F)(F)F)n1)=C(C#N)C#N
218 to 220	NC(=O)c1ccc(-c2ccc(-c3ccn(C(CC(=O)O)C(=O)NC(CO)Cc4ccccc4)c3)cc2)cc1 (stereo unspecified)
122 to 124	Cc1nc[nH]c1CSCCN=C(NC#N)NCCCCCCCCN
167	N#Cc1ccc(C=CC(=O)N2CCc3c([nH]c4ccccc34)C2c2ccc3c(c2)OCO3)cc1 (stereo unspecified)
115 to 117	CC(C)(C)OC(=O)CN1CC(c2ccsc2)SCC(N)C1=O (stereo unspecified)
131 to 132	CCNC(=O)C(=O)NCC(OCC)OCC
197 to 199	Cc1ccc(Oc2ccc(C(=O)N=C(N)N)cc2S(C)(=O)=O)cn1
179	CCOC(=O)Cn1nc(-c2ccc(C)cc2)c(C(N)=O)c1N
108 to 110	COC(=O)c1[nH]cc(Cc2ccsc2)c1N
227 to 228	Cc1c(F)c(N2CCCC(n3ccnn3)C2)c(F)c2c1c(=O)c(C(=O)O)cn2C1CC1 (stereo unspecified)
> 300	CC(CO)c1ccc2oc3nc(N)c(C(=O)O)cc3c(=O)c2c1 (stereo unspecified)
236	CCCc1c(C(=O)O)c(C(F)F)nc(C(F)(F)F)c1C(=O)O
246 to 248	O=C1NC(=O)C(c2c3n(c4ccccc24)CCC(CO)C3)=C1c1coc2ccccc12 (stereo unspecified)

melting point [°C]	SMILES
156 to 157	CCc1cccc(Nc2ncnc3cc(OCc4ccccc4)c(OCCOC)cc23)c1
114	CCCCc1nc(S)c(C(=O)OCC)n1Cc1cc2c(cc1Cl)OCO2
109 to 111	COC[C@@H](NC(=O)c1nn(-c2ccc(F)cc2F)c2c1C1CCC2C1)c1ccc(F)cc1 (stereo partly specified)
214	CN(c1cccc2cc(C3=NCC(CC(=O)NCCO)S3)[nH]c12)S(=O)(=O)c1cccs1 (stereo unspecified)
141 to 147	Cc1c(C(O)C2CCc3c(c4ccccc4n3C)C2=O)ncn1C(c1ccccc1)(c1ccccc1)c1ccccc1 (stereo unspecified)
205 to 210	O=C(O)Cc1ccc(-c2nc3cccc(Cl)c3o2)cc1
79 to 80	CCCN(CCC)C(=O)n1cnc(S(=O)(=O)CCC)n1
180 to 181	O=C(Nc1ccc(Oc2cc(Cl)ncn2)cc1)Nc1ccc(Cl)c(C(F)(F)F)c1
140	CCc1c([N+](=O)[O-])c(C(N)=O)nn1CCOC
57 to 60	CCCC(=O)c1cnc2c(F)cccc2c1Cl
98 to 101	COC(=O)C=C1NCC(C)OC1=O (stereo unspecified)
104 to 106	O=C1CSC=C2c3ccccc3C=CN12
164 to 165	CC(C)Cc1cc2cc(OCC(=O)O)c(Cl)c(Cl)c2s1
240 to 242	Cc1ccc2[nH]c(NC(=O)c3ccccc3)nc(=O)c2c1
110 to 112	CCCCCCOc1ccc2c(CBr)c(OCCCCCC)ccc2c1CBr
236 to 240	Nc1ncnc2c1cnn2Cc1oc2ccc(Br)cc2c(=O)c1-c1ccccc1
192 to 194	Cn1c(=O)nc(-c2ccccc2F)c2cc(Cl)sc21
> 300	O=c1nc(-c2ccc3c(c2)OCO3)c2cc3c(cc2[nH]1)OCO3
195 to 198	CN1C(=O)c2cscc2Nc2ccccc21
39 to 41	CCCCOc1cc(CCC(=O)O)ccc1-c1cccc(CN(C)C(=O)c2ccc(OC)cc2)c1
163 to 165	CCOC(=O)Cc1c(C(C)C(=O)O)c2cc(OC)ccc2n1Cc1ccc(Cl)cc1 (stereo unspecified)
82	CC1CCN(c2ccccc2C(=O)c2ccccc2)CC1

SMILES	melting point [°C]
O=C1NCN(c2ccccc2)C12CCN(CCCn1c(=O)[nH]c3cccc(Cl)c31)CC2	258
O=[N+]([O-])c1cccc(SC(CCl)S(=O)(=O)c2cccc([N+](=O)[O-])c2)c1 (stereo unspecified)	98 to 110
CN1CCc2c(Br)ccc([N+](=O)[O-])c2C1	85 to 87
CCN1CCC(=O)C(C(c2ccccc2)c2ccccc2)C1 (stereo unspecified)	54 to 58
